Test results: patent publication US10231956B2, “3-(1H-pyrrolo[3,2-C]pyridin-2-YL)-1 H-pyrazolo[4,3-B]pyridines and therapeutic uses thereof” (Samumed, LLC, priority 2015, dated 2019)

Tests used:
[1] = tested on: primary human fibroblasts derived from IPF patients (LL29 cells); assay: Inhibition of fibrotic process: αSMA staining in TGF-β1 treated LL29 fibroblasts; format: cell-based; conditions: Fibroblast, 96 h, TGF-β1 20 ng/mL, 4 days, % cells positive for αSMA
Procedure, shortened: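 LL29 cells at 1,500/well in F12 with 1% FBS, compounds at 1 μM–1.87 nM (11-point, 0.1% DMSO), TGF-β1 20 ng/mL added 1 h later, 4 days at 37 °C. SYTOX-positive cells excluded; % αSMA-positive cells by immunofluorescence imaging, normalized to TGF-β1/DMSO wells, triplicates fitted for EC50; above 10 μM, % inhibition at 10 μM given.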

[2] = tested on: SW480 colon cancer cells; assay: Cell viability assay (CellTiter-Blue) in SW480 colon cancer cells; format: cell-based; conditions: Homo sapiens, 96 h, four days, CellTiter-Blue
Procedure, shortened: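 4-day exposure, 37 °C/5% CO2; ~2×10^3 SW480 cells/well; 8-pt 1:3 curve, 10–0.0045 μM, duplicates vs DMSO controls. Resazurin→resorufin fluorescence readout, ~3 h. EC50 by nonlinear fit; if >10 μM, % inhibition at 10 μM reported.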

In the case of `c1cc2[nH]c(-c3n[nH]c4ccc(-c5cncc(OCCN6CCCC6)c5)nc34)cc2cn1` [Compound 658, 5-(5-(2-(Pyrrolidin-1-yl)ethoxy)pyridin-3-yl)-3-(1H-pyrrolo[3,2-c]pyridin-2-yl)-1H-pyrazolo[4,3-b]pyridine], the EC50 [1] is reported as 4.75 µM and the EC50 [2] is reported as 2.07 µM.
